Laboratory results: patent US7858788B2, “Bicyclic carbamoylpyridone derivative having HIV integrase inhibitory activity” (Shionogi & Co., Ltd., priority 2005, dated 2010)

What follows are compounds tested against HIV integrase (Human immunodeficiency virus type 1 group M subtype B, UniProt P04585) (assay: HIV integrase inhibitory activity assay (immunoplate, substrate DNA / target DNA, OD405)). Details: read-out: Integrase inhibitory activity (IC50, ng/ml) (converted).
Type: biochemical
Description: The HIV integrase inhibitory activity was investigated based on the following assay method.
(1) Preparation of DNA Solution
By the same method as that described in Experimental Example 1 of WO 2004/024693, a substrate DNA solution (2 pmol/ml) and a target DNA solution (5 pmol/ml) were prepared. […] Each sequence of a substrate DNA and a target DNA is as described in the same Experimental Example.
(2) Measurement of Inhibition Rate (IC50 Value)
Streptavidin (manufactured by Vector Laboratories) was dissolved in a 0.1M carbonate buffer solution (composition: 90 mM Na2CO3, 10 mM NaHCO3) to a concentration of 40 μg/ml. Each […] of this solution was added to a well of an immunoplate (manufactured by NUNC), and this is allowed to stand at 4° C. overnight to adsorb. Then, each well was washed with a phosphate buffer (composition: 13.7 mM NaCl, 0.27 mM KCl, 0.43 mM Na2HPO4, 0.14 mM KH2PO4) two times, and […] of a phosphate buffer containing 1% skim milk was added to block it for 30 minutes. Further, each well was washed with a phosphate buffer two times, […] of a substrate DNA solution (2 pmol/ml) was added to adsorb at room temperature for 30 minutes while shaking, and this was washed with a phosphate buffer two times and, then, distilled water once.
Then, to each well prepared as described above were added 12 ml of a buffer (composition: 150 mM MOPS (pH7.2), 75 mM MnCl2, 50 mM 2-mercaptoethanol, 25% glycerol, 500 μg/ml bovine serum albumin-fraction V), and 51 ml of a reaction solution prepared from […] of distilled water. Then, 9 ml of an integrase solution (30 pmol) was added, and the mixture was mixed well. To a well as a negative control (NC) was added 9 ml of a diluting solution (composition: 20 mM MOPS (pH7.2), 400 mM potassium glutamete, 1 mM EDTA, 0.1% NP-40, 20% glycerol, 1 mM DTT, 4 M urea), and this was mixed well using a plate mixer. […]
C abs.; absorbance of well of compound
NC abs.: absorbance of NC
PC abs.: absorbance of PC
Work on `COCCN1CC(O)n2cc(C(=O)NCc3ccc(F)cc3)c(=O)c(O)c2C1=O` [Example D-41, 4,9-Dihydroxy-2-(2-methoxy-ethyl)-1,8-dioxo-1,3,4,8-tetrahydro-2H-pyrid[1,2-a]pyrazine-7-carboxylic acid 4-fluoro-benzylamide] yielded an IC50 of 7.89 nM. In the case of `COCCN1C(=O)c2c(O)c(=O)c(C(=O)NCc3ccc(F)cc3COC)cn2CC1O` (stereo not drawn) [Example E-1, 3,9-Dihydroxy-2-(2-methoxy-ethyl)-1,8-dioxo-1,3,4,8-tetrahydro-2H-pyrid[1,2-a]pyrazine-7-carboxylic acid 4-fluoro-2-methoxymethyl-benzylamide], the IC50 was 11.1 nM. Compound `O=C(NCc1ccc(F)cc1)c1cn2ccn(Cc3ccc(F)cc3)c(=O)c2c(O)c1=O` [Example A-30, 2-(4-Fluorobenzyl)-9-hydroxy-1,8-dioxo-1,8-dihydro-2H-pyrid[1,2-a]pyrazine-7-carboxylic acid 4-fluoro-benzylamide] has an IC50 of 2.29 nM.
